Data on 19 molecules can be found in the ASAP Discovery antiviral challenge data (2025).

In brackets after ≈: the same amount, converted by molar mass. Several values for one entry are separate records, joined by “and”; a condition that tells them apart may be missing. Equal values may be shown once.

Assay in data set [1]: not given
The source holds these as a separate data set.

The conditions of data set [2]: human; liver_microsomes.
The conditions of data set [3]: mdck_mdr1.
The conditions of data set [4]: mouse; liver_microsomes.

The molecule `CC(C)[C@H](Nc1ncnc2[nH]cc(C(N)=O)c12)c1ccc2c(c1)OCCO2` (racemic) gave a logD of 3.2. In addition, in data set [1], the solubility (kinetic) worked out at 375 µM (≈ 138 µg/mL). The molecule also registered a microsomal CLint in data set [2] of 143 µL/min/mg. Further, the Papp in data set [3] was 11.1 ×10⁻⁶ cm/s. The molecule also gave a microsomal CLint in data set [4] of 142 µL/min/mg.

Take `CC(C)[C@H](Nc1ncnc2[nH]cc(C(=O)NC3CC3)c12)c1ccc2c(c1)S(=O)(=O)CCC2` (racemic): the logD came to 3.1. In data set [1], this molecule had a solubility (kinetic) of 257 µM (≈ 117 µg/mL). The microsomal CLint in data set [2] stood at 29 µL/min/mg. This molecule returned a Papp in data set [3] of 2.46 ×10⁻⁶ cm/s. In data set [4], this molecule registered a microsomal CLint of 234 µL/min/mg.

`COCCNC(=O)[C@H](Nc1ccc2c(c1)CNC2)c1cc(Cl)cc(C2CC2)c1` (single isomer, unassigned) gave a logD of 1. The kinetic solubility in data set [1] came to 320 µM (≈ 128 µg/mL). The same molecule yielded a microsomal CLint in data set [2] of 19.7 µL/min/mg. The molecule also came in with an apparent permeability coefficient (Papp) in data set [3] of 1.4 ×10⁻⁶ cm/s. Moreover, in data set [4], the microsomal CLint stood at 11.7 µL/min/mg.

`O=C(Nc1cc2c(cc1Br)CNC2)c1cc(F)cc2[nH]ncc12`: the logD amounted to 1.1. The kinetic solubility in data set [1] was found to be 47 µM (≈ 17.6 µg/mL). The microsomal CLint in data set [2] is 11.4 µL/min/mg. For the same molecule, in data set [3], the Papp was found to be 7.65 ×10⁻⁶ cm/s. In data set [4], the microsomal CLint was found to be 299 µL/min/mg.

Take `CNC(=O)c1cc2c(N[C@H](c3ccc4c(c3)NC(=O)CO4)C(C)C)ncnc2[nH]1` (racemic): the logD turned out to be 2.8. Moreover, the solubility (kinetic) in data set [1] was 372 µM (≈ 147 µg/mL). In addition, in data set [2], the microsomal CLint was found to be 52 µL/min/mg. The same molecule displayed a Papp in data set [3] of 0.873 ×10⁻⁶ cm/s. Moreover, the intrinsic metabolic clearance (microsomal CLint) in data set [4] stood at 20 µL/min/mg.

Regarding `COCCNC(=O)c1c[nH]c2ncnc(N[C@H](c3ccc4c(c3)S(=O)(=O)CCC4)C(C)C)c12` (racemic), the logD came out at 2.8. This molecule also gave a kinetic solubility in data set [1] of 378 µM (≈ 178 µg/mL). In data set [2], this molecule yielded an intrinsic metabolic clearance (microsomal CLint) of 540 µL/min/mg. Besides, the Papp in data set [3] was determined as 1.62 ×10⁻⁶ cm/s. Also, the intrinsic metabolic clearance (microsomal CLint) in data set [4] worked out at 888 µL/min/mg.

`CC(C)[C@H](Nc1ncnc2[nH]c(-c3cnn(C)c3C#N)cc12)c1ccc2c(n1)NC(=O)CO2` (single isomer, unassigned) had a logD of 3.7. In data set [1], this molecule returned a solubility (kinetic) of 28 µM (≈ 12.4 µg/mL). In addition, the microsomal CLint in data set [2] is 137 µL/min/mg and 51 µL/min/mg. The Papp in data set [3] is 9.35 ×10⁻⁶ cm/s and 9.64 ×10⁻⁶ cm/s. The microsomal CLint in data set [4] was 131 µL/min/mg and 189 µL/min/mg.

`COc1cc(Cc2c(-c3ccc(F)cc3)noc2C)nc(N2CCNCC2)n1` showed a logD of 2.1. This molecule also yielded a solubility (kinetic) in data set [1] of 325 µM (≈ 125 µg/mL). In addition, the microsomal CLint in data set [2] stood at 15 µL/min/mg. For the same molecule, the Papp in data set [3] came out at 4.78 ×10⁻⁶ cm/s. In data set [4], this molecule yielded a microsomal CLint of 33 µL/min/mg.

In turn, `COc1ccc2c(c1)CCN(c1ncnc3[nH]ccc13)[C@H]2C(C)C` (racemic) gave a pH-dependent lipophilicity (logD) of 4.33. In data set [1], this molecule had a kinetic solubility of 14 µM (≈ 4.51 µg/mL). Besides, the microsomal CLint in data set [2] is 60 µL/min/mg. Further, the Papp in data set [3] was found to be 7 ×10⁻⁶ cm/s. Besides, the microsomal CLint in data set [4] is 321 µL/min/mg.

`O=C(O)c1cc(Cl)ccc1NS(=O)(=O)c1ccc(Oc2ccccc2Cl)cc1`: the logD turned out to be 3. The solubility (kinetic) in data set [1] came out at 369 µM (≈ 162 µg/mL). The microsomal CLint in data set [2] turned out to be 155 µL/min/mg. In data set [3], this molecule gave a Papp of 4.01 ×10⁻⁶ cm/s. For the same molecule, the microsomal CLint in data set [4] is 13 µL/min/mg.

`CC(C)[C@H](Nc1ncnc2[nH]c(-c3cnn(C)c3)cc12)c1ccc2c(c1)S(=O)(=O)CCC2` (racemic) registered a logD of 3.3. The molecule further gave a solubility (kinetic) in data set [1] of 94 µM (≈ 42.4 µg/mL). This molecule also displayed a microsomal CLint in data set [2] of 141 µL/min/mg. Besides, the Papp in data set [3] came out at 1.73 ×10⁻⁶ cm/s. The microsomal CLint in data set [4] is 155 µL/min/mg.

`Cn1ncc(-c2cc3c(N[C@H](c4ccc5c(c4)OCCO5)C(C)(C)C)ncnc3[nH]2)c1C#N` (racemic) displayed a logD of 2.9. Further, in data set [1], the solubility (kinetic) came out at 25 µM (≈ 11.1 µg/mL). Besides, in data set [2], the microsomal CLint worked out at 85 µL/min/mg. Also, the Papp in data set [3] stood at 2.79 ×10⁻⁶ cm/s. This molecule also registered a microsomal CLint in data set [4] of 199 µL/min/mg.

`CCNC(=O)c1cc2c(N[C@H](c3ccc4c(c3)S(=O)(=O)CCC4)C(C)C)ncnc2[nH]1` (racemic) had a logD of 2.8. The molecule also came in with a solubility (kinetic) in data set [1] of 336 µM (≈ 148 µg/mL). Further, the microsomal CLint in data set [2] came to 108 µL/min/mg. In addition, the Papp in data set [3] was determined as 0.7 ×10⁻⁶ cm/s. The molecule also showed a microsomal CLint in data set [4] of 85 µL/min/mg.

For `CC(C)[C@H](Nc1ncnc2[nH]c(-c3cnn(CC(=O)N(C)C)c3)cc12)c1ccc2c(c1)OCCO2` (racemic), the logD came to 2.3. Besides, the kinetic solubility in data set [1] stood at 210 µM (≈ 99.9 µg/mL). Further, in data set [2], the microsomal CLint was 142 µL/min/mg. In addition, the Papp in data set [3] is 1.14 ×10⁻⁶ cm/s. In data set [4], this molecule gave a microsomal CLint of 59 µL/min/mg.

With `CC(C)[C@H](Nc1ncnc2[nH]c(-c3cnn(C)c3)cc12)c1ccc2c(c1)S(=O)(=O)NCC2` (racemic), the logD was found to be 3.2. In data set [1], this molecule came in with a kinetic solubility of 105 µM (≈ 47.4 µg/mL). In data set [2], this molecule showed a microsomal CLint of 120 µL/min/mg. In data set [3], the Papp came out at 1.58 ×10⁻⁶ cm/s. Also, in data set [4], the microsomal CLint is 87 µL/min/mg.

For the molecule `COc1ccc(C(=O)Nc2cccc(/C=C3/C(=O)NC(=O)c4ccccc43)c2)cc1`, the logD turned out to be 3.6. This molecule also yielded a kinetic solubility in data set [1] of 23 µM (≈ 9.16 µg/mL). In data set [2], this molecule displayed a microsomal CLint of 180 µL/min/mg. The molecule further displayed a Papp in data set [3] of 2.33 ×10⁻⁶ cm/s. The intrinsic metabolic clearance (microsomal CLint) in data set [4] was 127 µL/min/mg.

For the molecule `CCNC(=O)c1cc2c(N[C@H](c3ccc4c(c3)OCCO4)C(C)C)ncnc2[nH]1` (racemic), the logD is 3. This molecule also had a kinetic solubility in data set [1] of 72 µM (≈ 28.5 µg/mL). In data set [2], this molecule yielded a microsomal CLint of 85 µL/min/mg. Moreover, in data set [3], the Papp is 2.41 ×10⁻⁶ cm/s. The microsomal CLint in data set [4] was found to be 88 µL/min/mg.

For `NCc1cccc(CNC(=O)[C@H](NC(=O)OCc2ccccc2)c2ccc(OCc3ccccc3)cc2)c1` (racemic), the logD was determined as 2.7. Further, in data set [1], the kinetic solubility stood at 78 µM (≈ 39.7 µg/mL). Moreover, the microsomal CLint in data set [2] stood at 3.89 µL/min/mg. The Papp in data set [3] was 1.44 ×10⁻⁶ cm/s. In data set [4], this molecule displayed a microsomal CLint of 2.73 µL/min/mg.

Regarding `CNC(=O)c1cc2c(N[C@H](c3ccc4c(c3)S(=O)(=O)CCC4)C(C)C)ncnc2[nH]1` (racemic), the logD amounted to 2.4. The molecule also registered a solubility (kinetic) in data set [1] of 369 µM (≈ 158 µg/mL). In data set [2], this molecule displayed a microsomal CLint of 77 µL/min/mg. In data set [3], this molecule had a Papp of 0.46 ×10⁻⁶ cm/s. The same molecule yielded a microsomal CLint in data set [4] of 46 µL/min/mg.

One may read the logD as lipophilicity at a set pH, counting ionised and neutral species. Usually kinetic solubility stands for the concentration staying in solution when a stock, usually in DMSO, is diluted into the medium. As usually defined, the microsomal CLint is a measure of how fast metabolising enzymes remove a compound, apart from limits set by blood flow. A low value points to slow turnover. As usually defined, the Papp is a coefficient for how fast a substance crosses the barrier. A higher Papp goes with ready permeation.
